Assay results as given in publication PMC5308256 (2017).

Legend:
[1] = system: label-free A12-MB-A12 (DNA, hairpin) AAAAAAAAAAAACATCATAGTCGAGTGTCCAGGGAAAAAAAAAAAA; test: SYBR Green I fluorescence enhancement on folding; details: 10 mM HEPES pH 7.3; 0.5 μM DNA; 160 nM SYBR Green I
[2] = system: FAM-A40-DABCYL (A40) (DNA, hairpin) AAAAAAAAAAAAAAAAAAAAAAAAAAAAAAAAAAAAAAAA; test: FAM/DABCYL fluorescence quenching titration; details: 10 mM HEPES pH 7.3; 10 nM DNA; saturation at 0.6 μM coralyne
[3] = system: A12-MB-A12 (FAM/DABCYL-labeled) (DNA, hairpin) AAAAAAAAAAAACATCATAGTCGAGTGTCCAGGGAAAAAAAAAAAA; test: FAM/DABCYL fluorescence quenching titration; details: 10 mM HEPES pH 7.3; 10 nM DNA; saturation at 0.6 μM coralyne

binding [1]: yes
binding [2]: yes
Kd [3]: 500 nM
SMILES: COc1cc2cc3c4cc(OC)c(OC)cc4cc[n+]3c(C)c2cc1OC
